{"source": "patent US7368578B2", "about": "“Five-membered heterocyclic compounds” (Takeda Pharmaceutical Company Limited, priority 2002, dated 2008)"}
{"units": {"melting point": "°C"}}
{"smiles": "COc1cc(COc2nn(C)cc2/C=C/c2cscn2)ccc1OCc1nc(-c2ccco2)oc1C", "note": "[Example 167 (E form), 2-(2-furyl)-4-({2-methoxy-4-[({1-methyl-4-[(E)-2-(1,3-thiazol-4-yl)ethenyl]-1H-pyrazol-3-yl}oxy)methyl]phenoxy}methyl)-5-methyl-1,3-oxazole]", "melting point": "134 to 135"}
{"smiles": "COc1cc(COc2nn(C)cc2/C=C\\c2cscn2)ccc1OCc1nc(-c2ccco2)oc1C", "note": "[Example 167 (Z form), 2-(2-furyl)-4-({2-methoxy-4-[({1-methyl-4-[(Z)-2-(1,3-thiazol-4-yl)ethenyl]-1H-pyrazol-3-yl}oxy)methyl]phenoxy}methyl)-5-methyl-1,3-oxazole]", "melting point": "97 to 98"}
{"smiles": "CCOC(=O)/C=C/c1cn(CC)nc1OCc1ccc(OCc2nc(-c3ccco3)oc2C)c(OC)c1", "note": "[Example 168, ethyl (2E)-3-{1-ethyl-3-[(4-{[2-(2-furyl)-5-methyl-1,3-oxazol-4-yl]methoxy}-3-methoxybenzyl)oxy]-1H-pyrazol-4-yl}-2-propenoate]", "melting point": "149 to 150"}
{"smiles": "CCOC(=O)c1cn(C)nc1OCc1ccc(OCc2nc(-c3ccco3)oc2C)c(OC)c1", "note": "[Example 171, ethyl 3-[(4-{[2-(2-furyl)-5-methyl-1,3-oxazol-4-yl]methoxy}-3-methoxybenzyl)oxy]-1-methyl-1H-pyrazole-4-carboxylate]", "melting point": "117 to 118"}
{"smiles": "CCOC(=O)c1cn(CC)nc1OCc1ccc(OCc2nc(-c3ccco3)oc2C)c(OC)c1", "note": "[Example 172, ethyl 1-ethyl-3-[(4-{[2-(2-furyl)-5-methyl-1,3-oxazol-4-yl]methoxy}-3-methoxybenzyl)oxy]-1H-pyrazole-4-carboxylate]", "melting point": "114 to 115"}
{"smiles": "COc1cc(COc2nn(CCO)cc2CO)ccc1OCc1nc(-c2ccco2)oc1C", "note": "[Example 176, 2-[3-[(4-{[2-(2-furyl)-5-methyl-1,3-oxazol-4-yl]methoxy}-3-methoxybenzyl)oxy]-4-(hydroxymethyl)-1H-pyrazol-1-yl]ethanol]", "melting point": "120 to 122"}
{"smiles": "COc1cc(COc2nn(C)cc2C=O)ccc1OCc1nc(-c2ccco2)oc1C", "note": "[Example 177, 3-[(4-{[2-(2-furyl)-5-methyl-1,3-oxazol-4-yl]methoxy}-3-methoxybenzyl)oxy]-1-methyl-1H-pyrazole-4-carbaldehyde]", "melting point": "155 to 156"}
{"smiles": "CCn1cc(C=O)c(OCc2ccc(OCc3nc(-c4ccco4)oc3C)c(OC)c2)n1", "note": "[Example 178, 1-ethyl-3-[(4-{[2-(2-furyl)-5-methyl-1,3-oxazol-4-yl]methoxy}-3-methoxybenzyl)oxy]-1H-pyrazole-4-carbaldehyde]", "melting point": "103 to 104"}
{"smiles": "COc1cc(COc2nn(CCO)cc2C=O)ccc1OCc1nc(-c2ccco2)oc1C", "note": "[Example 179, 3-[(4-{[2-(2-furyl)-5-methyl-1,3-oxazol-4-yl]methoxy}-3-methoxybenzyl)oxy]-1-(2-hydroxyethyl)-1H-pyrazole-4-carbaldehyde]", "melting point": "149 to 150"}
{"smiles": "COc1cc(COc2nn(-c3ccccc3)cc2/C=C/c2cncn2C)ccc1OCc1nc(-c2ccco2)oc1C", "note": "[Example 181, 2-(2-furyl)-4-({2-methoxy-4-[({4-[(E)-2-(1-methyl-1H-imidazol-5-yl)ethenyl]-1-phenyl-1H-pyrazol-3-yl}oxy)methyl]phenoxy}methyl)-5-methyl-1,3-oxazole]", "melting point": "144 to 145"}
{"smiles": "CCn1cncc1/C=C/c1cn(-c2ccccc2)nc1OCc1ccc(OCc2nc(-c3ccco3)oc2C)c(OC)c1", "note": "[Example 182, 4-({4-[({4-[(E)-2-(1-ethyl-1H-imidazol-5-yl)ethenyl]-1-phenyl-1H-pyrazol-3-yl}oxy)methyl]-2-methoxyphenoxy}methyl)-2-(2-furyl)-5-methyl-1,3-oxazole]", "melting point": "130 to 132"}
{"smiles": "COc1cc(COc2nn(-c3ccccc3)cc2/C=C/C(N)=S)ccc1OCc1nc(-c2ccco2)oc1C", "note": "[Example 184, (2E)-3-{3-[(4-{[2-(2-furyl)-5-methyl-1,3-oxazol-4-yl]methoxy}-3-methoxybenzyl)oxy]-1-phenyl-1H-pyrazol-4-yl}-2-propenethioamide]", "melting point": "129 to 131"}
